Data published in US11299501B2 (BRISTOL-MYERS SQUIBB COMPANY, priority 2017, dated 2022).

What was measured:
Assay type in all cases: cell-based
human TLR7 = target: T1, human TLR7 (Homo sapiens, UniProt Q9NYK1); assay: TLR7 inhibition reporter assay (HEK-Blue SEAP); conditions: cells overexpressing human TLR7, SEAP reporter, stimulated with gardiquimod 7.5 μM, 22 hour incubation
T1 construct: host or cells: HEK-Blue cells
T1 sequence (Q9NYK1 27-1049): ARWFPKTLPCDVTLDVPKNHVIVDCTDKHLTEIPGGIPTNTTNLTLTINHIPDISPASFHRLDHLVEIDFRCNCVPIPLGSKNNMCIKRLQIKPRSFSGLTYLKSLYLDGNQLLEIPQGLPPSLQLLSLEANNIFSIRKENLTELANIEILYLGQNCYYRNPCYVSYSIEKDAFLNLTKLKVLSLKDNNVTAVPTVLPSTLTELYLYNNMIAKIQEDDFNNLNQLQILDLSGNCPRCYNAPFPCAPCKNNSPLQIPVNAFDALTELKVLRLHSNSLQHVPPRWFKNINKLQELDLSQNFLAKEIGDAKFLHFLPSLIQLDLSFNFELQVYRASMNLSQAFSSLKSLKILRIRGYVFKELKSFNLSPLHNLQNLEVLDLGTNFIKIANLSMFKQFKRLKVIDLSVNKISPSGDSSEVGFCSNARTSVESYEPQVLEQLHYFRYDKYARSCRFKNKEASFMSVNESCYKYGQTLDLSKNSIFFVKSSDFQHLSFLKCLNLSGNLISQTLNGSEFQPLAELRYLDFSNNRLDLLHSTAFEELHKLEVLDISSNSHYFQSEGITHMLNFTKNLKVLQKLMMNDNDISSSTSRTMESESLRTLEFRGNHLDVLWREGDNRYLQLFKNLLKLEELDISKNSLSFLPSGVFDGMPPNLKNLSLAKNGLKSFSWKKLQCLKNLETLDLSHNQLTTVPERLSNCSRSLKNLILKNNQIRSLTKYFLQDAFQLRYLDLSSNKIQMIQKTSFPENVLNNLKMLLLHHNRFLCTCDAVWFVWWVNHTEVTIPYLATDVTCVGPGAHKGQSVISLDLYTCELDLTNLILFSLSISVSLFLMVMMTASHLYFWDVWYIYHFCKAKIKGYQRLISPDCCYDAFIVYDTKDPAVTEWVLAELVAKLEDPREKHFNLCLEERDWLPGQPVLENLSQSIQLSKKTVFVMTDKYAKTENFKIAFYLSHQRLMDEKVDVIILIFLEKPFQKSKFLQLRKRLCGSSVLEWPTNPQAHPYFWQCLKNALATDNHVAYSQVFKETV
In short: (§1)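 HEK-Blue cells expressing human TLR7, TLR8 or TLR9 with NF-κB/AP-1-driven SEAP reporter pre-treated 30 min at room temperature with compound (0.05 nM–50 μM), then stimulated with gardiquimod 7.5 μM (TLR7), R848 15.9 μM (TLR8) or ODN2006 5 nM (TLR9). SEAP read after 22 h at 37 °C; % inhibition relative to agonist+DMSO and reference-inhibitor wells.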

human TLR8 = target: T2, human TLR8 (Homo sapiens, UniProt Q9NR97); assay: TLR8 inhibition reporter assay (HEK-Blue SEAP); conditions: cells overexpressing human TLR8, SEAP reporter, stimulated with R848 15.9 μM, 22 hour incubation
T2 construct: host or cells: HEK-Blue cells
T2 sequence (Q9NR97 27-1041): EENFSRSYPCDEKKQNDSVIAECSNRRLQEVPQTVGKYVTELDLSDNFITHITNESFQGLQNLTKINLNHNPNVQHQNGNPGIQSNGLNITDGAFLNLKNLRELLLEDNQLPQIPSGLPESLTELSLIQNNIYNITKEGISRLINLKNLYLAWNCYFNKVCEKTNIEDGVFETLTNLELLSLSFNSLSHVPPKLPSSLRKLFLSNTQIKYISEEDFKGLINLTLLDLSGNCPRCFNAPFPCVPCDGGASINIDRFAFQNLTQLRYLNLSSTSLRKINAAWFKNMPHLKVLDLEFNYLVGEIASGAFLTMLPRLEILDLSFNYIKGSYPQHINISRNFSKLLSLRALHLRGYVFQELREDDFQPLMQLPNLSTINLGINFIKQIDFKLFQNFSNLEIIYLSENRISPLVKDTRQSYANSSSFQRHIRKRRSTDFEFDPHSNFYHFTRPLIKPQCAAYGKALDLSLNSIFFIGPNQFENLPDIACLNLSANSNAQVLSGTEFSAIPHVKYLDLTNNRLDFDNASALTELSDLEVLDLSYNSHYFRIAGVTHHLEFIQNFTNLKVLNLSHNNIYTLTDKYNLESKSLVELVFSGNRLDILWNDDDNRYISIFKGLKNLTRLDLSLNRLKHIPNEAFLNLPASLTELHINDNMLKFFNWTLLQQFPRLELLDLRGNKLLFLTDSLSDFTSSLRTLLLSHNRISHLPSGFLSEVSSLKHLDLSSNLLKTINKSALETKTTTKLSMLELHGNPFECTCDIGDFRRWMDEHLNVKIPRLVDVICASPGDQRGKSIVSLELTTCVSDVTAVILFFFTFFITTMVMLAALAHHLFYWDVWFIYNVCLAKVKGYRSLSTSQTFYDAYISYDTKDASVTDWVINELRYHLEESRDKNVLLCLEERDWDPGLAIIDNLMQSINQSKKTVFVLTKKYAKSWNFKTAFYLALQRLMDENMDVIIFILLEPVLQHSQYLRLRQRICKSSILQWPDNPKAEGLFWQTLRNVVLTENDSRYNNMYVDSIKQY
In short: as §1

human TLR9 = target: T3, human TLR9 (Homo sapiens, UniProt Q9NR96); assay: TLR9 inhibition reporter assay (HEK-Blue SEAP); conditions: cells overexpressing human TLR9, SEAP reporter, stimulated with ODN2006 5 nM, 22 hour incubation
T3 construct: host or cells: HEK-Blue cells
T3 sequence (Q9NR96 26-1032): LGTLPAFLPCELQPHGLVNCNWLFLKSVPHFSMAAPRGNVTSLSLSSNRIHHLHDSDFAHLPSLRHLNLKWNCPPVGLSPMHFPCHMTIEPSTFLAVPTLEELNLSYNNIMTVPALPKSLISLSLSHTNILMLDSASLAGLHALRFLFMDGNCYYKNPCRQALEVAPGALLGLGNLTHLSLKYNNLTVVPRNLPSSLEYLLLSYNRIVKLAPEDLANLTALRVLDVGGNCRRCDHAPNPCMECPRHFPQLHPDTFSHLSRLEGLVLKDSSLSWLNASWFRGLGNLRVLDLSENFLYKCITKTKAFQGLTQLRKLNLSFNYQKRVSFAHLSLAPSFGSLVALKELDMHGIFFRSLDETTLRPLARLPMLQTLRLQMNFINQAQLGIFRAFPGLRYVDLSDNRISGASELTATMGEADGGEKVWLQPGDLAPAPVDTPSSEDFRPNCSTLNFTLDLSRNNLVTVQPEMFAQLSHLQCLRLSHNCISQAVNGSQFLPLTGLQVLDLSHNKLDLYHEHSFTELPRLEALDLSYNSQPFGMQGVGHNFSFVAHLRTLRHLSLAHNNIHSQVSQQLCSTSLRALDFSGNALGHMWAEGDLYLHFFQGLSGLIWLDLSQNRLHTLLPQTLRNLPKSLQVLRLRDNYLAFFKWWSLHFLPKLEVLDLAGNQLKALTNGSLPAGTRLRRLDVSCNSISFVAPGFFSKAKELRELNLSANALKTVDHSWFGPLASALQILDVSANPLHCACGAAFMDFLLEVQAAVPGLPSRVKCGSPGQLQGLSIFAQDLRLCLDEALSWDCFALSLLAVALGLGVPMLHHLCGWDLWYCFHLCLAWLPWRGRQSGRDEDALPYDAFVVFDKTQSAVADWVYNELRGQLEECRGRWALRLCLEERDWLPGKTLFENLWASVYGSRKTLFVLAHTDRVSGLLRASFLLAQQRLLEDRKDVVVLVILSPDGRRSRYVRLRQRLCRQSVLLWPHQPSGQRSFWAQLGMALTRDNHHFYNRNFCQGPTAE
In short: as §1

SMILES | IC50 (human TLR7) [nM] | IC50 (human TLR8) [nM] | IC50 (human TLR9) [µM]
CCc1c(-c2ccc(OC)c(OC)c2)[nH]c2cnc(-c3nnc(N)o3)nc12 [Example 53, 5-(6-(3,4-dimethoxyphenyl)-7-ethyl-5H-pyrrolo[3,2-d]pyrimidin-2-yl)-1,3,4-oxadiazol-2-amine] | > 50000 | 1000 to 50000 | > 50
CCc1c(-c2ccc(OC)c(OC)c2)[nH]c2cnc(C(=O)N3CC4CNCC4C3)nc12 (stereo not drawn) [Example 55, (6-(3,4-dimethoxyphenyl)-7-ethyl-5H-pyrrolo[3,2-d]pyrimidin-2-yl)(hexahydropyrrolo[3,4-c]pyrrol-2(1H)-yl)methanone] | 1000 to 50000 | 1000 to 50000 | 1 to 50
CCc1c(-c2ccc(OC)c(OC)c2)[nH]c2cnc(C(=O)NC3CCN(C(C)C)CC3)nc12 [Example 56, 6-(3,4-diunethoxyphenyl)-7-ethyl-N-(1-isopropylpiperidin-4-yl)-5H-pyrrolo[3,2-d]pyrimidine-2-carboxamide] | 1000 to 50000 | 1000 to 50000 | > 50

The next lines start with the values.

IC50 (human TLR7) [nM] | IC50 (human TLR8) [nM] | IC50 (human TLR9) [µM] | SMILES
100 to 1000 | < 100 | 1 to 50 | CCc1c(-c2ccc(OC)c(OC)c2)[nH]c2cnc(C3CCN(Cc4nc(C)c[nH]4)CC3)nc12 [Example 52, 6-(3,4-dimethoxyphenyl)-7-ethyl-2-(1-((4-methy 1H-imidazol-2-yl)methyl)piperidin-4-yl)-5H-pyrrolo[3,2-d]pyrimidine]
< 100 | < 100 | 0.1 to 1 | COc1cc(-c2[nH]c3cnc(C4CCN(CC#N)CC4)nc3c2C(C)C)cn2ncnc12 [Example 59]
